Twelve molecules from US9012475B2, “Method for enhancing anti-tumor effect of a microtubule-targeting drug, and a method for treatment of tumor” (Taiho Pharmaceutical Co., Ltd., priority 2013, dated 2015) can be followed below.

The target of data set [1] is human Aurora A (Homo sapiens (Human), UniProt O14965). Nature of the data set: Measurement of Aurora A inhibitory activity (IMAP fluorescence polarization kinase assay). Type of data set: biochemical. To be noted: ATP 5 μM, 25° C., 50 minutes. On the procedure: (§1) The inhibitory activities of a test compound against Aurora A and Aurora B were measured according to the following method.
human Aurora A, sequence (O14965 whole entry, the tested form may be a part): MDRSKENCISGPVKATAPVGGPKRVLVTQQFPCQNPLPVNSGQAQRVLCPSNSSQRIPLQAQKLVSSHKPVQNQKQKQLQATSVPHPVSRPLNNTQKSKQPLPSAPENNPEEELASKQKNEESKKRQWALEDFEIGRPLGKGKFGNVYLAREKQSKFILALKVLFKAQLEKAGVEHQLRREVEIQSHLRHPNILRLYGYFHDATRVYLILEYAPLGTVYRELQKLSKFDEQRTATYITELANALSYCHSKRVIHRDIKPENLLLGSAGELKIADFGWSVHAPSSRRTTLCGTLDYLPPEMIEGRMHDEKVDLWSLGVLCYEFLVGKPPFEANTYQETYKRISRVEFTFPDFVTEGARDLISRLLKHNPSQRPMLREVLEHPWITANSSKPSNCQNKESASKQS
Complementary DNA of human Aurora A was fused with a histidine tag at the amino terminal, inserted into an expression vector and highly expressed in Escherichia coli BL21-CodonPlus (DE3)-RIL strain. After Escherichia coli was recovered and lysed, human Aurora A protein fused with a histidine tag was allowed to bind to a nickel chelate column and eluted by imidazole from the column. An active fraction was desalted by a desalting column to obtain purified enzyme.
In measuring inhibitory activity of the compound, first, the test compound was serially diluted by dimethylsulfoxide (DMSO). […] To the mixture, IMAP (registered trade mark) Progressive Binding Reagent diluted 500× with IMAP (registered trade mark) Progressive Binding Buffer A (manufactured by Molecular Devices) was added to terminate the kinase reaction. […] Based on the obtained fluorescence polarization degree, the amount of phosphorylation reaction was obtained.

In data set [2] the target is human Aurora B (Homo sapiens (Human), UniProt Q96GD4). Nature of the data set: Measurement of Aurora B kinase activity. In kind it is biochemical. To be noted: ATP 40 μM, 60 minutes. On the procedure: as §1
human Aurora B, sequence (Q96GD4 whole entry): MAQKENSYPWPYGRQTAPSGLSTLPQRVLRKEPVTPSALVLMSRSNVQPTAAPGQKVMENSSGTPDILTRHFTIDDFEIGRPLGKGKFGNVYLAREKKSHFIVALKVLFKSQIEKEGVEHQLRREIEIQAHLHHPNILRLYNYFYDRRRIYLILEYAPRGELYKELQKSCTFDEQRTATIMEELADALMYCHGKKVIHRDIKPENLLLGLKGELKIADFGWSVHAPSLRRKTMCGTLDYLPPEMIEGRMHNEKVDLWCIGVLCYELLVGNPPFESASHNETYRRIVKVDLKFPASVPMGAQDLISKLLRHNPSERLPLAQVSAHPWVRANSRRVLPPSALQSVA
human Aurora B, sequence (Q9NQS7 803-916 partner): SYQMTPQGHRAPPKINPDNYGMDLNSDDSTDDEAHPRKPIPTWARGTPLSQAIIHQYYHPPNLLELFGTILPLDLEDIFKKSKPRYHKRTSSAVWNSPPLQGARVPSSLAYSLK
The concentration of the compound at which 50% of the phosphorylation reaction was suppressed was defined as IC50 value (nM).

Data set [3] in a line: Evaluation of oral absorption property. In kind it is in vivo, BALE/cA mice. The note with it: oral administration in 0.5% HPMC, plasma 0.5-6 hours, LCMS. On the procedure: A test compound was suspended or dissolved in 0.5% HPMC and orally administered to BALE/cA mice. At the time points of 0.5, 1, 2, 4 and 6 hours after oral administration, blood was sampled from the back of the eye to obtain blood plasma. The concentration of the compound in the obtained blood plasma was measured by LCMS and evaluated for oral absorption property.

For data set [4], the system named is human-derived uterus cancer cell strain HeLa-luc. The note with it: Group 1: paclitaxel 10 mg/kg iv day 1 alone, 5 rats. From the text:
Cells (1×10^7) of human-derived uterus cancer cell strain HeLa-luc (manufactured by PerkinElmer Co., Ltd.) having a luciferase gene introduced therein were subcutaneously grafted to the right abdomens of nude rats. At the time the volume of a tumor developed from grafted cells reached about 200 mm^3, the rats were divided into groups each consisting of 5 rats according to stratified randomization such that each group had almost the same tumor volume. […] To Group 2 and 3, paclitaxel was administered and, on the next day, Compound 1 (30 mg/kg) was orally administered twice per day for one day or 4 days (sequential administration, see FIG. 1 (A), Sequential treatment). To the rats of Group 4 and 5, paclitaxel was administered and, on the same day, Compound 1 (30 mg/kg) was orally administered twice per day for 2 days or 4 days (concurrent administration, see FIG. 1 (B), Concurrent treatment). Compound 1 was suspended or dissolved in 0.5% (w/v) hydroxypropyl methyl cellulose (HPMC). Paclitaxel was dissolved in Cremophor EL and anhydrous ethanol, diluted with physiological saline so as to obtain a predetermined concentration and put in use.
The presence or absence of a therapeutic effect was determined by measuring the major axis and minor axis of a tumor with time and obtaining a tumor volume (TV), relative tumor volume (RTV) and T/C (%) value (average relative tumor volume ratio of the treatment group to the control group) on day 10 after initiation of administration according to the following expressions. Tumor volume (TV)={(major axis)×(minor axis)^2}/2 Relative tumor volume (RTVn) on measurement day (n)=TVn/TV1 T/C(%)={(average RTVn of treatment group)/(average RTVn of control group)}×100
TV1 represents tumor volume at the administration initiation time
Furthermore, an individual in which a tumor disappeared was specified as CR (complete remission/complete response) and the number of cases was obtained.

The structures appear in SMILES notation.

For the molecule `Cc1cc(Nc2nc(CC3(C(=O)O)CCN(C(=O)c4cccc(C(F)(F)F)c4F)CC3)ccc2F)n[nH]1` [Production Example 2, 1-(2-fluoro-3-trifluoromethylbenzoyl)-4-((5-fluoro-6-(5-methyl-1H-pyrazol-3-ylamino)pyridin-2-yl)methyl)piperidine-4-carboxylic acid], the half-inhibitory concentration (IC50) turned out to be 0.5 nM in data set [1] and 340 nM in data set [2].
Turning to `COc1ccc(CC2(C(=O)O)CCN(C(=O)c3cccc(Cl)c3F)CC2)nc1Nc1cc(C)[nH]n1` [Production Example 11, 1-(3-chloro-2-fluorobenzoyl)-4-((5-methoxy-6-(5-methyl-1H-pyrazol-3-ylamino)pyridin-2-yl)methyl)piperidine-4-carboxylic acid], the values for the 50% inhibitory concentration (IC50) in data set [1] and in data set [2] were 0.6 nM and 930 nM, respectively. In addition, the “oral absorption property (concentration in blood plasma)” value (shortened to “oral absorption property”) in data set [3] was “satisfactory oral absorption property”.
Taken in the same sequence, the figures for `Cc1cc(Nc2nc(CC3(C(=O)O)CCN(C(=O)c4cccc(Cl)c4F)CC3)ccc2Cl)n[nH]1` [Production Example 12, 1-(3-chloro-2-fluorobenzoyl)-4-((5-chloro-6-(5-methyl-1H-pyrazol-3-ylamino)pyridin-2-yl)methyl)piperidine-4-carboxylic acid] were 0.4 nM, 260 nM and “satisfactory oral absorption property”.
Regarding `Cc1cc(Nc2nc(CC3(C(=O)O)CCN(C(=O)c4cccc(Cl)c4F)CC3)ccc2F)n[nH]1` [Production Example 13, 1-(3-chloro-2-fluorobenzoyl)-4-((5-fluoro-6-(5-methyl-1H-pyrazol-3-ylamino)pyridin-2-yl)methyl)piperidine-4-carboxylic acid], the IC50 in data set [1] was found to be 0.4 nM; in data set [2], 180 nM. In data set [3], the “oral absorption property” value is on record as “satisfactory oral absorption property”.
Turning to `CNC(=O)C1(Cc2ccc(F)c(Nc3cc(C)[nH]n3)n2)CCN(C(=O)c2cccc(Cl)c2F)CC1` [Production Example 14, 1-(3-chloro-2-fluorobenzoyl)-4-((5-fluoro-6-(5-methyl-1H-pyrazol-3-ylamino)pyridin-2-yl)methyl)-N-methylpiperidine-4-carboxyamide], the IC50 came to 0.9 nM in data set [1] and 460 nM in data set [2].
On the same counts, the results for `Cc1cc(Nc2nc(CC3(C(=O)NC4CC4)CCN(C(=O)c4cccc(Cl)c4F)CC3)ccc2F)n[nH]1` [Production Example 17, 1-(3-chloro-2-fluorobenzoyl)-N-cyclopropy1-4-((5-fluoro-6-(5-methyl-1H-pyrazol-3-ylamino)pyridin-2-yl)methyl)piperidine-4-carboxyamide] are 0.9 nM and 900 nM.
Take `Cc1cc(Nc2nc(CC3(C(=O)N4CCC4)CCN(C(=O)c4cccc(Cl)c4F)CC3)ccc2F)n[nH]1` [Production Example 19, azetidin-1-yl(1-(3-chloro-2-fluorobenzoyl)-4-((5-fluoro-6-(5-methyl-1H-pyrazol-3-ylamino)pyridin-2-yl)methyl)piperidine-4-yl)methanone]: the IC50 in data set [1] turned out to be 1 nM; in data set [2] it was 880 nM.
With `Cc1cc(Nc2nc(CC3(c4noc(C)n4)CCN(C(=O)c4cccc(Cl)c4F)CC3)ccc2F)n[nH]1` [Production Example 22, (3-chloro-2-fluorophenyl)(4-((5-fluoro-6-(5-methyl-1H-pyrazol-3-ylamino)pyridin-2-yl)methyl)-4-(5-methyl-1,2,4-oxadiazol-3-yl)piperidine-1-yl)methanone], the half-inhibitory concentration (IC50) in data set [1] was 0.7 nM; in data set [2], 380 nM. For the same molecule, in data set [3], the “oral absorption property” value is reported as “satisfactory oral absorption property”.
With `Cc1cc(Nc2nc(CC3(c4ncon4)CCN(C(=O)c4cccc(Cl)c4F)CC3)ccc2F)n[nH]1` [Production Example 24, (3-chloro-2-fluorophenyl)(4-((5-fluoro-6-(5-methyl-1H-pyrazol-3-ylamino)pyridin-2-yl)methyl)-4-(1,2,4-oxadiazol-3-yl)piperidine-1-yl)methanone], the IC50 came to 0.5 nM in data set [1] and 190 nM in data set [2].
As to `Cc1cc(Nc2nc(CC3(c4nnc(C)o4)CCN(C(=O)c4cccc(Cl)c4F)CC3)ccc2F)n[nH]1` [Production Example 28, (3-chloro-2-fluorophenyl)(4-((5-fluoro-6-(5-methyl-1H-pyrazol-3-ylamino)pyridin-2-yl)methyl)-4-(5-methyl-1,3,4-oxadiazol-2-yl)piperidine-1-yl)methanone], the concentration for half-maximal inhibition (IC50) stood at 0.7 nM in data set [1] and 450 nM in data set [2].
Turning to `Cc1noc(C2(Cc3ccc(F)c(Nc4cc(C)[nH]n4)n3)CCN(C(=O)c3cccc(Cl)c3F)CC2)n1` [Production Example 29, (3-chloro-2-fluorophenyl)(4-((5-fluoro-6-(5-methyl-1H-pyrazol-3-ylamino)pyridin-2-yl)methyl)-4-(3-methyl-1,2,4-oxadiazol-5-yl)piperidine-1-yl)methanone], the values for the IC50 in data set [1] and in data set [2] were 0.8 nM and 390 nM, respectively.
On to `CC(=O)O[C@H]1C(=O)[C@@]2(C)[C@H]([C@H](OC(=O)c3ccccc3)[C@]3(O)C[C@H](OC(=O)[C@H](O)[C@@H](NC(=O)c4ccccc4)c4ccccc4)C(C)=C1C3(C)C)[C@]1(OC(C)=O)CO[C@@H]1C[C@@H]2O` [paclitaxel, reference compound], for which the “number of CR cases” value in data set [4] is “no CR cases”.
